pEC50: −log10 of the molar value. ≈ marks a conversion by molar mass, not a printed value.
Legend:
[1] = system: Trichomonas vaginalis; assay: Anti-trichomonal activity against Trichomonas vaginalis assessed as inhibition of parasite growth incubated for 18 hrs; assay type: functional, organism-based
[2] = system: Mycoplasma genitalium; assay: Antibacterial activity against Mycoplasma genitalium G37C assessed as bacterial growth inhibition incubated for 7 days by phenol red reagent based microbroth dilution assay; assay type: functional; settings: Mycoplasmoides genitalium, 168 h, time 7 day
[3] = Selectivity index, ratio of IC50 for cytotoxicity against african green monkey Vero cells incubated for 48 hrs by celltiter blue assay to EC50 for anti-trichomonal activity against Trichomonas vaginalis assessed as inhibition of parasite growth incubated for 18 hrs; assay type: toxicity, cell-based; settings: read-out: Ratio IC50/EC50
[4] = Selectivity index, ratio of IC50 for cytotoxicity against african green monkey Vero cells incubated for 48 hrs by celltiter blue assay to MIC for antibacterial activity against Mycoplasma genitalium G37C assessed as bacterial growth inhibition incubated for 7 days by phenol red reagent based microbroth dilution assay; assay type: toxicity, cell-based; settings: read-out: Selectivity Index

Structure (SMILES)	pEC50 [1]	MIC90 [2]	selectivity ratio at 48 h [3]	selectivity ratio at 48 h [4]
C/C=C/C=C/[C@H]1C(C)=C[C@H]2C[C@@H](C)CC[C@@H]2[C@@]1(C)/C(O)=C1\C(=O)[C@@H](COCc2cn(CCO)nn2)N(C)C1=O	< 5.00	23.2 µM (≈ 12.5 µg/mL)		
C/C=C/C=C/[C@H]1C(C)=C[C@H]2C[C@@H](C)CC[C@@H]2[C@@]1(C)/C(O)=C1/C(=O)N[C@H](CO)C1=O	6.10	1 µM (≈ 0.4 µg/mL)	119	94.8
C/C=C/C=C/[C@H]1C(C)=C[C@H]2C[C@@H](C)CC[C@@H]2[C@@]1(C)/C(O)=C1\C(=O)[C@@H](COCc2cn(Cc3cc(C)cc(C)c3)nn2)N(C)C1=O	< 5.00	20.4 µM (≈ 12.5 µg/mL)		
CC1=C[C@H]2C[C@@H](C)CC[C@@H]2[C@@](C)(/C(O)=C2\C(=O)[C@H](COCc3cn(Cc4ccc(C(=O)O)cc4)nn3)N(C)C2=O)[C@H]1/C=C/C=C/C[C@@H](C)O	< 5.00	> 37 µM		
C/C=C/[C@@H]1C=C[C@@H]2C[C@H](C)CC[C@H]2[C@]1(C)/C(O)=C1\C(=O)[C@@H](CO)N(C)C1=O	< 5.00	2.1 µM (≈ 0.784 µg/mL)		11.5
C/C=C/C=C/[C@H]1C(C)=C[C@H]2C[C@@H](C)CC[C@@H]2[C@@]1(C)/C(O)=C1\C(=O)[C@@H](COCc2cn(CC3CCCCO3)nn2)N(C)C1=O (stereo partly specified)	< 5.00	5.2 µM (≈ 3.08 µg/mL)		8.1
CC1=C[C@H]2C[C@@H](C)CC[C@@H]2[C@@](C)(/C(O)=C2\C(=O)[C@H](CO)N(C)C2=O)[C@H]1/C=C/C=C/C[C@@H](C)O	< 5.00	6.8 µM (≈ 3.11 µg/mL)		
C/C=C/C=C/[C@H]1C(C)=C[C@H]2C[C@@H](C)CC[C@@H]2[C@@]1(C)/C(O)=C1\C(=O)[C@H](COCc2cn(CC3CCCCO3)nn2)N(C)C1=O (stereo partly specified)	< 5.00	5.2 µM (≈ 3.08 µg/mL)		4.4
C/C=C/C=C/[C@H]1C(C)=C[C@H]2C[C@@H](C)CC[C@@H]2[C@@]1(C)/C(O)=C1\C(=O)[C@@H](COCc2cn(CCCCC)nn2)N(C)C1=O	< 5.00	22.1 µM (≈ 12.5 µg/mL)		
CC1=C[C@H]2C[C@@H](C)CC[C@@H]2[C@@](C)(/C(O)=C2\C(=O)[C@@H](COCc3cn(CC4CCCCO4)nn3)N(C)C2=O)[C@H]1/C=C/C=C/C[C@@H](C)O (stereo partly specified)	< 5.00	19.6 µM (≈ 12.5 µg/mL)		
C/C=C/C=C/[C@H]1C(C)=C[C@H]2C[C@@H](C)CC[C@@H]2[C@@]1(C)/C(O)=C1\C(=O)[C@H](COCc2cn(CCCCO)nn2)N(C)C1=O	< 5.00	22.1 µM (≈ 12.5 µg/mL)		
C/C=C/C=C/[C@H]1C(C)=C[C@H]2C[C@@H](C)CC[C@@H]2[C@@]1(C)/C(O)=C1\C(=O)[C@@H](COCc2cn(Cc3c[nH]c4ccccc34)nn2)N(C)C1=O	< 5.00	4.9 µM (≈ 3.06 µg/mL)		17.9
C/C=C/C=C/[C@H]1C(C)=C[C@H]2C[C@@H](C)CC[C@@H]2[C@@]1(C)/C(O)=C1\C(=O)[C@@H](COC(C)=O)N(C)C1=O	< 5.00	12.5 µM (≈ 5.69 µg/mL)		
C/C=C/C=C/[C@H]1C(C)=C[C@H]2C[C@@H](C)CC[C@@H]2[C@@]1(C)/C(O)=C1\C(=O)[C@@H](COCc2cn(CCCCO)nn2)N(C)C1=O	< 5.00	11.1 µM (≈ 6.29 µg/mL)		
C/C=C/C=C/[C@H]1C(C)=C[C@H]2C[C@@H](C)CC[C@@H]2[C@@]1(C)/C(O)=C1\C(=O)[C@@H](COCC=C(C)C)N(C)C1=O	< 5.00	6.4 µM (≈ 3.08 µg/mL)		8.8
CC1=C[C@H]2C[C@@H](C)CC[C@@H]2[C@@](C)(/C(O)=C2\C(=O)[C@@H](CO)N(C)C2=O)[C@H]1/C=C/[C@H](O)[C@H](C)O	< 5.00	> 50 µM		
C/C=C/C=C/[C@H]1C(C)=C[C@H]2C[C@@H](C)CC[C@@H]2[C@@]1(C)/C(O)=C1/C(=O)N[C@@H](CO)C1=O	< 5.00	62.6 µM (≈ 25 µg/mL)		
C/C=C/C=C/[C@H]1C(C)=C[C@H]2C[C@@H](C)CC[C@@H]2[C@@]1(C)/C(O)=C1\C(=O)[C@H](COCc2cn(Cc3cc(C)cc(C)c3)nn2)N(C)C1=O	< 5.00	20.4 µM (≈ 12.5 µg/mL)		
C/C=C/C=C/[C@H]1C(C)=C[C@H]2C[C@@H](C)CC[C@@H]2[C@@]1(C)/C(O)=C1\C(=O)[C@H](COCc2cn(CCCO)nn2)N(C)C1=O	< 5.00	22.6 µM (≈ 12.5 µg/mL)		
C/C=C/C=C/[C@H]1C(C)=C[C@H]2C[C@@H](C)CC[C@@H]2[C@@]1(C)/C(O)=C1\C(=O)[C@H](COCc2cn(CC3CCCO3)nn2)N(C)C1=O (stereo partly specified)	< 5.00	12.5 µM (≈ 7.23 µg/mL)		
C/C=C/C=C/[C@H]1C(C)=C[C@H]2C[C@@H](C)CC[C@@H]2[C@@]1(C)/C(O)=C1\C(=O)[C@@H](COC)N(C)C1=O	< 5.00	3.7 µM (≈ 1.58 µg/mL)		6.7
C/C=C/C=C/[C@H]1C(C)=C[C@H]2C[C@@H](C)CC[C@@H]2[C@@]1(C)/C(O)=C1\C(=O)[C@@H](COCc2cn(CCc3ccc(O)cc3)nn2)N(C)C1=O	< 5.00	5 µM (≈ 3.07 µg/mL)		6.1

Structure (SMILES)	pEC50 [1]	MIC90 [2]	selectivity ratio at 48 h [3]	selectivity ratio at 48 h [4]
CC1=C[C@H]2C[C@@H](C)CC[C@@H]2[C@@](C)(/C(O)=C2\C(=O)[C@@H](COCc3cn(Cc4ccc(C(=O)O)cc4)nn3)N(C)C2=O)[C@H]1/C=C/C=C/C[C@@H](C)O	< 5.00	37 µM (≈ 24.9 µg/mL)		
C/C=C/C=C/[C@H]1C(C)=C[C@H]2C[C@@H](C)CC[C@@H]2[C@@]1(C)/C(O)=C1\C(=O)[C@H](COCc2cn(Cc3ccc(C(=O)O)cc3)nn2)N(C)C1=O	5.12	> 25 µM		
CC1=C[C@H]2C[C@@H](C)CC[C@@H]2[C@@](C)(/C(O)=C2\C(=O)[C@@H](CO)N(C)C2=O)[C@H]1/C=C/[C@@H](O)[C@@H](C)O	< 5.00	12.5 µM (≈ 5.59 µg/mL)		
C#CCOC[C@@H]1C(=O)/C(=C(/O)[C@@]2(C)[C@@H](/C=C/C=C/C)C(C)=C[C@H]3C[C@@H](C)CC[C@@H]32)C(=O)N1C	< 5.00	14 µM (≈ 6.32 µg/mL)		
C/C=C/C=C/[C@H]1C(C)=C[C@H]2C[C@@H](C)CC[C@@H]2[C@@]1(C)/C(O)=C1\C(=O)[C@@H](COCc2cn(CC3CCCC3)nn2)N(C)C1=O	< 5.00	10.9 µM (≈ 6.29 µg/mL)		
C/C=C/C=C/[C@H]1C(C)=C[C@H]2C[C@@H](C)CC[C@@H]2[C@@]1(C)C(=O)[C@H]1C(=O)N(C)[C@H](CO)[C@H]1O	< 5.00	7.5 µM (≈ 3.12 µg/mL)		2.8
C/C=C/C=C/[C@H]1C(C)=C[C@H]2C[C@@H](C)CC[C@@H]2[C@@]1(C)/C(O)=C1\C(=O)[C@@H](COCc2cn(CCCO)nn2)N(C)C1=O	< 5.00	22.6 µM (≈ 12.5 µg/mL)		
C/C=C/C=C/[C@H]1C(C)=C[C@H]2C[C@@H](C)CC[C@@H]2[C@@]1(C)/C(O)=C1\C(=O)[C@H](COCc2cn(CCO)nn2)N(C)C1=O	< 5.00	5.8 µM (≈ 3.12 µg/mL)		9.7
C/C=C/C=C/[C@H]1C(C)=C[C@H]2C[C@@H](C)CC[C@@H]2[C@@]1(C)/C(O)=C1\C(=O)[C@H](CO)N(C)C1=O	< 5.00	25 µM (≈ 10.3 µg/mL)		
C#CCOC[C@@H]1C(=O)/C(=C(/O)[C@@]2(C)[C@@H](/C=C/C=C/C[C@@H](C)OCC#C)C(C)=C[C@H]3C[C@@H](C)CC[C@@H]32)C(=O)N1C	< 5.00	5.8 µM (≈ 3.1 µg/mL)		14
C/C=C/C=C/[C@H]1C(C)=C[C@H]2C[C@@H](C)CC[C@@H]2[C@@]1(C)/C(O)=C1\C(=O)[C@@H](COCc2cn(CC3CCCO3)nn2)N(C)C1=O (stereo partly specified)	5.27	12.5 µM (≈ 7.23 µg/mL)		
CC1=C[C@H]2C[C@@H](C)CC[C@@H]2[C@@](C)(/C(O)=C2\C(=O)[C@H](COCc3cn(CCc4ccc(O)cc4)nn3)N(C)C2=O)[C@H]1/C=C/C=C/C[C@@H](C)O	< 5.00	9.8 µM (≈ 6.46 µg/mL)		12.1
C/C=C/C=C/[C@H]1C(C)=C[C@H]2C[C@@H](C)CC[C@@H]2[C@@]1(C)/C(O)=C1\C(=O)[C@H](COCc2cn(Cc3c[nH]c4ccccc34)nn2)N(C)C1=O	< 5.00	9.9 µM (≈ 6.18 µg/mL)		2.5
CC1=C[C@H]2C[C@@H](C)CC[C@@H]2[C@@](C)(/C(O)=C2\C(=O)[C@@H](COCc3cn(CCO)nn3)N(C)C2=O)[C@H]1/C=C/C=C/C[C@@H](C)O	< 5.00	10.8 µM (≈ 6.29 µg/mL)		6.5
CC1=C[C@H]2C[C@@H](C)CC[C@@H]2[C@@](C)(/C(O)=C2\C(=O)[C@@H](COCc3cn(CCc4ccc(O)cc4)nn3)N(C)C2=O)[C@H]1/C=C/C=C/C[C@@H](C)O	5.27	38.8 µM (≈ 25.6 µg/mL)		
CC1=C[C@H]2C[C@@H](C)CC[C@@H]2[C@@](C)(/C(O)=C2\C(=O)[C@H](COCc3cn(CCO)nn3)N(C)C2=O)[C@H]1/C=C/C=C/C[C@@H](C)O	< 5.00	> 40 µM		
C/C=C/C=C/[C@H]1C(C)=C[C@H]2C[C@@H](C)CC[C@@H]2[C@@]1(C)/C(O)=C1\C(=O)[C@H](COCc2cn(CCCCC)nn2)N(C)C1=O	< 5.00	22.1 µM (≈ 12.5 µg/mL)		
C/C=C/C=C/[C@H]1C(C)=C[C@H]2C[C@@H](C)CC[C@@H]2[C@@]1(C)[C@@H](O)[C@H]1C(=O)N(C)[C@H](CO)[C@H]1O	< 5.00	30.1 µM (≈ 12.6 µg/mL)		
C/C=C/C=C/[C@H]1C(C)=C[C@H]2C[C@@H](C)CC[C@@H]2[C@@]1(C)/C(O)=C1\C(=O)[C@@H](COCc2ccccc2)N(C)C1=O	< 5.00	24.8 µM (≈ 12.5 µg/mL)		
CC1=C[C@H]2C[C@@H](C)CC[C@@H]2[C@@](C)(/C(O)=C2\C(=O)[C@H](COCc3cn(CC4CCCCO4)nn3)N(C)C2=O)[C@H]1/C=C/C=C/C[C@@H](C)O (stereo partly specified)			19.6	
C/C=C/C=C/[C@H]1C(C)=C[C@H]2C[C@@H](C)CC[C@@H]2[C@@]1(C)/C(O)=C1\C(=O)[C@H](COCc2cn(CC3CCCC3)nn2)N(C)C1=O	< 5.00	5.4 µM (≈ 3.11 µg/mL)		7.9

Source: ChEMBL document CHEMBL6071196, “Semisynthetic Tetramate-Containing Fungal Metabolites with Activity against Trichomonas vaginalis and Mycoplasma genitalium” (ACS Med Chem Lett, 2024)
